Results: paper PMC10119282, “Molecular characterization of AIFM2/FSP1 inhibition by iFSP1-like molecules” (Cell Death & Disease, 2023)

What was measured:
[1] = system: Pfa1 Gpx4−/− overexpressing mFSP1 K319Q; test: Cell viability (Alamar blue), mFSP1 K319Q; format: cell-based, murine; details: Mus musculus, x axis iFSP1 (μM), read-out: IC50 (dose-response toxicity)
Experimental: (§1) Cell Lines. 4-hydroxytamoxifen (TAM)-inducible Gpx4^−/− murine immortalized fibroblasts (Pfa1) were reported previously. These cells harbor two loxP-flanked Gpx4 alleles and stably express TAM inducible Cre recombinase allowing the genetic deletion of Gpx4 at will. For all experiments using Gpx4^−/− the well were treated with 4-hydroxitamoxifen (TAM) 1 µM. All cells were cultured with were cultured in DMEM-high glucose (4.5 g glucose/L) with 10% fetal bovine serum (FBS), Glutamax, and 1% penicillin/streptomycin (Gibco, Thermo Fischer) at 37 °C with 5% CO2 and verified to be negative for mycoplasma.
(§2) Cell viability assays. Alamar Blue method: Cells were seeded on 96-well plates (2000 cells per well) and treated with the compounds RSL3, iFSP1 and (liproxstatin-1) after plating. Cell viability was assessed 48 h (unless stated otherwise) after treatment using Alamar Blue as an indicator of viable cells. Alamar blue solution was made by dissolving of 1 g resazurin sodium salt (Thermo Fischer) in 200 mL sterile PBS and sterile filtrated through a 0.22 µm filter. Stock solutions were stored at 4 °C. The working solution was made freshly by adding 200 µL of the stock solution to 25 mL growth media. After 2–4 h incubation time, viability was estimated by measuring the fluorescence using a 540/35 excitation filter and a 590/20 emission on a Spark® microplate reader (Tecan, Zürich, Switzerland).

[2] = system: Pfa1 Gpx4−/− overexpressing hFSP1 F360A; test: Cell viability (Alamar blue), hFSP1 F360A; format: cell-based, murine
Experimental: as §1, §2

[3] = molecular target: T1, hFSP1 WT (Homo sapiens, UniProt Q9BRQ8); test: Competition MST against pre-formed complex of hFSP1 WT and FSP1-Tracer; format: binding
T1 construct: HisSUMO (cleaved yes); made in house; host or cells: E. coli BL21
T1 sequence (Q9BRQ8 1-373): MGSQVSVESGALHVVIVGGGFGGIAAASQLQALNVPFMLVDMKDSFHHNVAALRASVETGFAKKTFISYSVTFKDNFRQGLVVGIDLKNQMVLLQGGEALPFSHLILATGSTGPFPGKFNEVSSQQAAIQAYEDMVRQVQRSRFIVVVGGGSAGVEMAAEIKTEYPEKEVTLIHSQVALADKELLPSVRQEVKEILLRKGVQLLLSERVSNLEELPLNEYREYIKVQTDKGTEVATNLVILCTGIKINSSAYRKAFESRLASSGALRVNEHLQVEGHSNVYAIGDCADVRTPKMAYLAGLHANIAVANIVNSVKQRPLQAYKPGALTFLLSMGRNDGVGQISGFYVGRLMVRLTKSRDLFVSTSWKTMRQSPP
Experimental: FSP1 (human isoform 1, UniProt Q9BRQ8-1) WT (hFSP1 WT) and F360L (hFSP1 F360L) were expressed in E.coli BL21 as HisSUMO fusion protein. Cells were grown in lysogeny broth medium at 18 °C and induced with 0.5 mM isopropyl-β-thiogalactoside at a cell density A600 of 0.6. Cells were collected after overnight expression by centrifugation, resuspended in lysis buffer ([…], 50 mM Tris-HCl pH 8, 1 mM TCEP, 20 mM imidazole, protease inhibitor, DNase) and lysed by sonication. Cell debris was removed by centrifugation (30,000 × g) at 4 °C for 30 min, after which an IMAC purification was performed. Briefly, a HisTrap crude FF (5 mL) column was equilibrated to lysis buffer, lysates were loaded via the sample pump and the column was then washed with 50 mL lysis buffer. During the elution with a gradient to 100% IMAC elution buffer (300 mM NaCl, 50 mM Tris-HCl pH 8, 1 mM TCEP, 400 mM imidazole) over 100 mL, 5 mL fractions were collected. The pooled fractions were dialysed overnight in the presence of SenP2 SUMO protease at a ratio of 40:1 FSP1:SenP2. Afterwards, a reverse IMAC purification was performed on a HisTrap crude FF (5 mL) column. IMAC eluates were analysed by SDS PAGE and concentrated to 15 mL (hFSP1 WT) and 5 mL (hFSP1 F360L), respectively. […] Pure fractions were pooled (C12—D11 for hFSP1 WT and C7—D4 for hFSP1 F360L), analysed by SDS-PAGE (Supplementary Fig. 4) and concentrated to 5.8 mL at 285.9 µM (hFSP1 WT) and 1.2 mL at 269.5 µM (FSP1 F360L), flash frozen in liquid N2 and stored at −80 °C.
An MST buffer consisting of 1× phosphate-buffered saline (PBS; 137 mM NaCl, 2.7 mM KCl, 10 mM Na2HPO4, 1.8 mM KH2PO4, pH 7.4) with 2 mM reduced L-Glutathione (GSH, Sigma Aldrich, product number G4251) and 0.05% (v/v) Tween 20 (ITW Reagents, molecular biology grade, product number A4974) was used for all MST measurements. […] KD values were determined by applying a Hill-fit to a plot of Fnorm vs. hFSP1 WT/F360L concentration. […]

Cc1ccc(-c2c(C#N)c(N)n3c(nc4ccccc43)c2C#N)cc1 [iFSP1]
IC50 [1]: 5.62 µM
inhibitor activity (ferroptosis induction) [2]: abolishes the inhibitor activity
IC50 ([2]; Mus musculus, x axis iFSP1 (μM), read-out: IC50 (dose-response toxicity)): 5.62 µM
Ki ([3]; hFSP1 WT 5 µM and FSP1-Tracer 5 nM pre-formed complex): 0.0616 µM
higher binding affinity to hFSP1 than NADH ([3]; iFSP1 Ki versus NADH Ki): 7.4 fold
